The text below walks through data of patent US10420840B2, “Anticancer therapeutic agents” (RLL, LLC, priority 2015, dated 2019).

Assay [1] relates to PBMC. Description: Cell viability, CellTiter Glo Assay, PBMC. Format: cell-based. The settings on record: peripheral blood monocytes (proliferating normal cells), read-out: Effect of AOH39 on Cell Viability IC50. As for the experimental part: (§1) The IC50's listed in Table 1 and in FIGS. 8 and 9 were determined by monitoring cell proliferation in the absence or presence of increasing concentrations of AOH39 using the Cell-Titer Glo Assay, (Promega Inc., Madison, Wis.) which monitors the energy status of the entire culture and the viability of the cell population. (https://www.promega.com/products/cell-health-and-metabolismicell-viability-assaysicelltiter_glo-luminescent-cell-viability-assay/). As the population doubles so does the quantum yield from the assay. HCC1937 is a BRCA1 defective Breast Cancer cell line; MCF7 is an ER+ breast cancer cell line; MDA-MB231 and MDA-MB468 are ER-aggressive breast cancer cell lines. SK-N-AS, SK-N-BE2c, SK-N-DZ lines are neuroblastoma cell lines and LAN5 cells are a cell line derived from a neuroblastoma bone metastasis; MCF10A is a non-malignant but immortalized breast cell line. PBMC—peripheral blood monocytes (proliferating normal cells), and MCF10A is an immortalized but non-malignant breast epithelial cell line. Referring to FIGS. 8 and 9, the X-axis is the Log of AOH39 concentration in uM, where 0 corresponds to 1 uM and 1 corresponds to 10 uM. The Y-Axis indicates cell proliferation as a percentage of identical cell cultures grown in PBS/DMSO without added AOH39.
(In general: ATP-based viability assays read luminescence as a measure of living cells.)

For assay [2], the system named is MCF10A. Description: Cell viability, CellTiter Glo Assay, MCF10A. The assay is classed as cell-based. The note with it: Homo sapiens, MCF-10A, non-malignant but immortalized breast cell line, read-out: Effect of AOH39 on Cell Viability IC50. As for the experimental part: as §1
Assay [3] concerns MCF7. Description: Cell viability, CellTiter Glo Assay, MCF7. The assay is classed as cell-based. The note with it: Homo sapiens; MCF7, ER+ breast cancer cell line; read-out: Effect of AOH39 on Cell Viability IC50. As for the experimental part:
as §1

Assay [4] deals with HCC1937. The experiment in a line: Cell viability, CellTiter Glo Assay, HCC1937. Format: cell-based. The note with it: Homo sapiens; HCC1937, BRCA1 defective breast cancer cell line; read-out: Effect of AOH39 on Cell Viability IC50. How it is done:
as §1

The test system of assay [5] is MDA-MB468. The experiment in a line: Cell viability, CellTiter Glo Assay, MDA-MB468. The assay is classed as cell-based. The settings on record: Homo sapiens, MDA-MB-468; MDA-MB468, ER- breast cancer cell line; read-out: Effect of AOH39 on Cell Viability IC50. How it is done:
as §1

Assay [6] relates to MDA-MB231. Description: Cell viability, CellTiter Glo Assay, MDA-MB231. Format: cell-based. The settings on record: Homo sapiens, MDA-MB-231; MDA-MB231, ER- breast cancer cell line; read-out: Effect of AOH39 on Cell Viability IC50. How it is done:
as §1

The test system of assay [7] is SK-N-AS. The experiment in a line: Cell viability, CellTiter Glo Assay, SK-N-AS. The assay is classed as cell-based. The note with it: Homo sapiens, neuroblastoma cell line, read-out: Effect of AOH39 on Cell Viability IC50. As for the experimental part: as §1
The subject of assay [8] is SK-N-BE2c. Description: Cell viability, CellTiter Glo Assay, SK-N-BE2c. The assay is classed as cell-based. The note with it: SK-N-BE(2)-C, neuroblastoma cell line, read-out: Effect of AOH39 on Cell Viability IC50. How it is done:
as §1

In assay [9] the test system is SK-N-DZ. The experiment in a line: Cell viability, CellTiter Glo Assay, SK-N-DZ. Format: cell-based. The settings on record: Homo sapiens, neuroblastoma cell line, read-out: Effect of AOH39 on Cell Viability IC50. As for the experimental part:
as §1

In assay [10] the test system is LAN5. The experiment in a line: Cell viability, CellTiter Glo Assay, LAN5. The note with it: LA-N-5; LAN5, neuroblastoma bone metastasis cell line; read-out: Effect of AOH39 on Cell Viability IC50. Format: cell-based. How it is done:
as §1

For assay [11], the system named is MCF7 Cell SV40 origin-dependent In Vitro DNA replication. The experiment in a line: T-antigen and SV40 origin dependent in vitro DNA replication reaction. The assay is classed as biochemical. The settings on record: for Inhibition of in vitro DNA replication: relative to reaction containing Tris-HCl/DMSO. As for the experimental part: In vitro DNA replication activity was determined using the standard T-antigen and SV40 origin dependent in vitro DNA replication reaction (L. Malkas et al., Biochemistry 29: 6362-6374 (1990) and percent inhibition was determined relative to a reaction containing Tris-HCl/DMSO in place of AOH39.) The reaction was started with the addition of T-antigen to the reaction mixture. Results are shown in FIG. 3, with AOH39 inhibiting replication by roughly 50% at concentrations of 5 μM and by more than 75% at 10 μM.
(§2) There is a precise correlation between the ability of AOH39 to inhibit the SV40 origin dependent in vitro DNA replication process and MCF7 cell viability, FIG. 4. Cell viability was determined colorimetrically using the MTT assay following a 72 hour incubation with 10 μM of AOH39. In vitro DNA replication activity was determined using the standard T-antigen and SV40 origin dependent in vitro DNA replication reaction (L. Malkas et al., Biochemistry, 29, 6362-6374 (1990)), and percent inhibition was determined relative to a reaction containing Tris-HCl/DMSO in place of AOH39 for the activity assay, and PBS/DMSO for the viability assay.

For assay [12], the system named is MCF7 cells. Description: MCF7 cell viability, MTT assay. Format: cell-based. The settings on record: 72 hour incubation with 10 μM. As for the experimental part:
as §2
For orientation: Formazan colour is commonly taken as a measure of viable cells.

The IC50 is the concentration at which inhibition is half-maximal. With `O=C(CNC(=O)c1cccc2ccccc12)Nc1ccccc1Cc1ccccc1` [AOH39], the half-maximal inhibitory concentration (IC50) in assay [1] worked out at 13.2 µM; in assay [2] it was 6.2 µM; in assay [3], 3.1 µM; in assay [4], 2200 nM; in assay [5], 3.3 µM; in assay [6] it was 1000 nM. The half-inhibitory concentration (IC50) turned out to be 2200 nM in assay [7], 2900 nM in [8], 1700 nM in [9] and 1200 nM in [10]. Moreover, the “Inhibition of in vitro DNA replication” value in [11] (5 μM) was “roughly 50%”; in assay [11] (10 μM), “more than 75%”. Further, the “Inhibition of DNA replication (in words)” value in [11] (relative to control replication reaction containing PBS/DMSO in place of compound) is “inhibited DNA replication significantly”. For the same compound, the “MCF7 cell viability (in words)” value in assay [12] is on record as “significant decrease in MCF7 cell viability”.
